{
  "source": "patent US5607850A",
  "about": "“Enzyme from microbial source: phthalyl amidase” (Eli Lilly and Company, priority 1995, dated 1997)",
  "key": {"[1]": {"biological_target": "T1, phthalyl amidase (Xanthobacter agilis, UniProt P0C2Y0)", "T1 sequence (P0C2Y0 2-453)": "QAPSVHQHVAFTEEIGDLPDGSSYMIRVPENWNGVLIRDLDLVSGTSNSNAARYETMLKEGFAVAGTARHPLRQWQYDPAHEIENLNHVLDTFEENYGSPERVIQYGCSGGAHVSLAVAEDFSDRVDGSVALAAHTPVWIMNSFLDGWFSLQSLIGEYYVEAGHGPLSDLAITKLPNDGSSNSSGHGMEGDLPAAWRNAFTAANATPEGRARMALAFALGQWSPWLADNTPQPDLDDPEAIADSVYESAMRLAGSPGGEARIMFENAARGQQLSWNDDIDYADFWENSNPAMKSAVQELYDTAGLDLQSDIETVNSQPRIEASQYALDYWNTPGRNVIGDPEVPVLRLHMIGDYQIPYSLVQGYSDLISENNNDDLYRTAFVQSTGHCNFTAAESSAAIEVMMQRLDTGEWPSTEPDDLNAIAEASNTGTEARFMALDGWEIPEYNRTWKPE", "assay": "Chiral and additional substrate selectivity of phthalyl amidase (Table 13)", "type": "biochemical", "conditions": "30° C.; for Relative Activity: Table 13", "experimental": "Several additional substrates were tested in a total volume of 1 ml. […] Reactions were stopped by the addition of methanol, and phthalic acid formation was monitored by HPLC."}, "[2]": {"biological_target": "T1, phthalyl amidase", "assay": "Kinetic parameters for phthalyl amidase", "type": "biochemical", "conditions": "Table 12; 32° C., pH 8.2", "experimental": "The kinetic parameters of the enzyme were determined for several representative substrates. Compounds II, XVII, and XVIII were tested using 0.9 μg/ml of enzyme. Compounds III and XI were tested using 5.14 μg/ml of enzyme. Substrate concentrations were between 0 and 25 mM and reaction time was between 2 and 20 minutes, depending on the substrate used. All reactions were run at 32° C. and at pH 8.2. Km is the Michaelis constant for enzyme kinetics, Vmax is the maximal rate of reaction calculated by the Michaelis-Menten equation, and Kcat is the catalytic constant for an enzyme reaction."}, "[3]": {"biological_target": "T1, phthalyl amidase", "assay": "Substrate specificity of phthalyl amidase (Tables 9-11)", "type": "biochemical", "conditions": "Table 9, beta-lactams; 30° C., pH 8.0", "experimental": "the activity of phthalyl amidase against 25 compounds was determined. The compounds were divided into beta-lactams (Table 9), phthalyl amides (Table 10), and aromatic ring substituted amides (Table 11). Each reaction mixture (1 ml total volume) contained 2.5 μmol of compound and 0.3 units of enzyme (based on the chromogenic substrate) of the preparative scale purified enzyme, in 50 mM phosphate buffer, pH 8.0. The reactions were conducted at 30° C. Samples of the reaction mixture were taken at various times, and methanol (equal value) was added to stop the reaction. The samples were examined by HPLC to determine the extent of substrate hydrolysis. The amount of compound hydrolyzed was calculated from a standard curve of the test compound. All substrates were stable in buffer at 30° C. and pH 8.0 in the absence of enzyme for 24 hours."}, "[4]": {"biological_target": "T1, phthalyl amidase", "assay": "Preparative scale enzymatic hydrolysis to carbacephem nucleus", "type": "biochemical", "conditions": "510 minutes, 30° C., pH 8.0, 80 units enzyme", "experimental": "Thus, either compound XXXIII or III can be used to prepare the carbacephem nucleus (XXXIV). Substrate (5 grams) was added to 20 ml of deionized water and the pH of the solution was adjusted to 8.0 with concentrated ammonium hydroxide. Phthalyl amidase, 80 units as determined using the chromogenic substrate (II), was added to start the reaction. Temperature was maintained at 30° C. and the pH maintained at 8.0 by adding 2 N ammonium hydroxide. […] The pH of the reaction was lowered to 5.0 thereby precipitating the carbacephem nucleus. Isolated yields of the nucleus were between 65% and 77%. [drawing 26]"}, "[5]": {"assay": "Stability of phthalyl amidase: effect of ionic strength and pH", "type": "physicochemical", "conditions": "200 mM salt added to 20 mM buffer", "experimental": "The stability of phthalyl amidase at pH values ranging from 6-9 was determined as described in Example 5 at 30° C. in both 20 and 200 mM potassium phosphate buffer. […] In 200 mM buffer, the enzyme retained at least 80% of its activity for 100 hours irrespective of the pH of the incubating medium."}, "[6]": {"biological_target": "T1, phthalyl amidase", "assay": "Influence of effectors and organic solvents on phthalyl amidase activity", "type": "biochemical", "experimental": "A typical reaction mixture consisted of 1 ml total volume and contained 0.1 mM III, 0.1 μM phthalyl amidase in 50 mM potassium phosphate buffer (pH 5.5-9.0) at 32° C. for 20 minutes. The reactions were stopped by the addition of 1 ml methanol. After removal of precipitate by centrifugation, an aliquot of the supernatant fraction (typically 30 μl) was monitored for the beta-lactam nucleus and phthalic acid by HPLC using a Zorbax C8 column (0.46×15 cm; MacMod Analytical Inc., Chadds Ford, Pa.). The two reaction products were eluted by a mobile phase constructed as continuous mixed gradients from (a) 1% ACN (acetonitrile)/0.2% TFA (trifluoroacetic acid) and (b) 80% ACN/0.2% TFA as follows: 1) 0% (b), 3min; 2) 0-50% (b), 0.5 min; 3) 50-100% (b), 3 min; 4) 100% (b), 2.5 min; 5) 100-1% (b), 0.1 min; and 6) 0% (b), 5 min.\nThe effect of various agents on the enzymatic activity of phthalyl amidase was determined using standard conditions (see Example 5). All agents were tested at 1 mM final concentration unless otherwise indicated."}},
  "note": "Like-named read-outs stand apart in the source and are kept apart here.",
  "data": [
    {"smiles": "O=C(Nc1ccccc1)c1ccccc1S(=O)(=O)O", "note": "[XXXII]", "values": [
      {"measurement": "substrate preference", "setting": "[1]", "value": "poor substrates for the enzyme"},
      {"measurement": "Relative Activity", "setting": "[1]; run for a longer time period", "value": 0.0}
    ]},
    {"smiles": "O=C(O)c1ccccc1C(=O)Nc1ccccc1", "note": "[Compound XXXI]", "values": [
      {"measurement": "substrate preference", "setting": "[1]", "value": "twice that of compound III"},
      {"measurement": "Relative Activity", "setting": "[1]; 2 minutes", "value": 200}
    ]},
    {"smiles": "O=C(O)C1=C(Cl)CCC2C(NC(=O)c3ccccc3C(=O)O)C(=O)N12", "note": "(centres unmarked) [III, 7-phthalamido-3-chloro-4-carboxy-1-carba-dethioceph-3-em]", "values": [
      {"measurement": "Km", "setting": "[2]", "value": 900, "unit": "µM"},
      {"measurement": "Vmax", "setting": "[2]", "value": 7.6, "unit": "μmol/sec/μmol"},
      {"measurement": "Relative Activity", "setting": "[1]; 2 minutes", "value": 100},
      {"measurement": "Relative Activity", "setting": "[3]", "value": 100},
      {"measurement": "hydrolyzed", "setting": "[4]", "value": 90.0, "unit": "%"}
    ]},
    {"smiles": "[Cl-].[Na+]", "note": "[NaCl, reference compound]", "values": [
      {"measurement": "protection of enzyme against activity loss", "setting": "[5]", "value": "protected against activity loss"},
      {"measurement": "% of Control Activity", "setting": "[6]", "value": 104, "unit": "%"}
    ]},
    {"smiles": "O=C(O)c1ccccc1C(=O)N[C@H](C(=O)O)c1ccccc1", "note": "[Compound XXX, N-phthalyl-phenylglycine]", "values": [
      {"measurement": "substrate preference", "setting": "[1]", "value": "poor substrates for the enzyme"},
      {"measurement": "substrate preference", "setting": "[1]; listed as L isomer", "value": "extremely poor substrate"},
      {"measurement": "Relative Activity", "setting": "[1]; run for a longer time period", "value": 1.3}
    ]},
    {"smiles": "[Cl-].[K+]", "note": "[KCl, reference compound]", "values": [
      {"measurement": "protection of enzyme against activity loss", "setting": "[5]", "value": "protected against activity loss"},
      {"measurement": "% of Control Activity", "setting": "[6]; 1 mM agent", "value": 100, "unit": "%"}
    ]},
    {"smiles": "O=C(O)C1=C(Cl)CCC2C(N3C(=O)c4ccccc4C3=O)C(=O)N12", "note": "(centres unmarked) [XXXIII, Phthalimido carbacephem]", "values": [
      {"measurement": "hydrolyzed", "setting": "[4]", "value": 98, "unit": "%"}
    ]}
  ]
}
